Patent US12384756B2, “Piperidinedione derivatives” (INNOCURE THERAPEUTICS, INC., priority 2021, dated 2025)
Read-outs that look alike come from different tables or passages of the source.

Legend:
Assay type in all cases: cell-based
BRD4 [1] = target: T1, BRD4 (Homo sapiens, UniProt O60885); assay: BRD4 protein degradation by western blot in MDA-MB-231 cells; parameters: BRD4 expressed in cells; endogenous in cells; host or cells: MDA-MB-231; conditions: MDA-MB-231, 24 hours; for DC50: 50% inhibition of protein expression, read-out: DC50 of BRD4-targeted PROTAC
Description: (§1) Human breast cancer cell line [MDA-MB-231] was cultured in RPMI medium with 10% petal bovine serum, penicillin [100 U/ml] and streptomycin [[…]]. The synthesized compound was prepared as a stock solution of 10 mM or 50 mM dissolved in DMSO [dimethyl sulfoxide], and it was sequentially diluted to treat the cell line.
To evaluate the PROTAC's degradation ability to BRD4 expressed in cells, the cells were aliquoted into a 6 well plate at a concentration of 5×10^5 cells/ml, and then the sample was treated for 24 hours. In order to conduct western blotting assay to confirm protein expression, the cell treated with the compound was treated for 30 minutes with 70 μL of RIPA buffer wherein protease inhibitor is added. Then, cell lysate was collected on ice using a scraper and centrifuged at 4° C. 15,000 rpm for 30 minutes to obtain a supernatant containing protein. Then, SDS-PAGE is conducted for 10 μg of protein per each sample, and the protein is transferred to a membrane. The protein is reacted with antibodies of anti-BRD4, anti-tubulin and anti-GAPDH at 4° C. for 16 hours, and then, reacted with secondary antibodies at room temperature for 1 hour. The protein expression is confirmed using SUPERSIGNAL™ WEST PICO PLUS chemiluminescence substrate and image analyzer. The protein expression was normalized based on the expression value of β-tublin or GAPDH. The amount of protein expression in each sample was measured in % based on the sample treated with 0.1% DMSO vehicle which was set to 100%. The amount of protein expression was quantified using the IMAGE J PROGRAM. The change in the amount of protein expression due to the treatment of compound (DC50: the concentration of compounds where the 50% inhibition of protein expression is achieved) was calculated using […] PRISM 8.0 software.

[2] = system: Human breast cancer cell line [MDA-MB-231]; assay: Anti-proliferative activity (WST-8) of BRD4 targeted PROTAC in MDA-MB-231; conditions: Homo sapiens, MDA-MB-231, 72 hours
Description: as §1
In order to observe inhibition of cell growth, cells were aliquoted into concentrations of 5,000 cells/well at 96 well plates, and then were treated with samples prepared at various concentrations for 72 hours. The cell survival was calculated by steps of adding in each well […] of water soluble tetrazolium salt (WST-8) which produces formazon in response to dehydrogenase present in the electron transport chain in mitochondria, incubating for 2 hours, measuring the absorbance at 450 nm, and calculating by GraphicPad Prism 8.0 software.

BRD4 [3] = target: T1, BRD4; assay: BRD4 degradation by western blot in A549 cells; parameters: BRD4 expressed in cells; endogenous in cells
Description: The human lung cancer cell line A549 was purchased from the Korean Cell Line Bank.
5×10^5 cells were seeded for each well of the 6 well plate (SPL company), and the cells were cultured with a total of 1.5 mL of the culture medium volume. The cultured cells were treated with various concentrations (0 nM, 0.1 nM, 0.3 nM, 1 nM, 3 nM, 10 nM, 30 nM, 100 nM, 300 nM, 1000 nM, 3000 nM, 10000 nM) of PROTAC compound according to the present invention and cultured for 24 hours.
For cell lysis, a lysis buffer was added and cell lysate was obtained using a cell scraper.
Specifically, cells were treated with 70 μl of 1×RIPA buffer containing protease inhibitors. Cell lysate was collected on ice using a scraper and incubated for 30 minutes. Then, cells were centrifuged at 4° C. 15,000 rpm for 30 minutes to obtain a cell lysate.
The standard curve was obtained using BCA assay, and the protein mass in the lysate was quantified by substituting the standard curve. The mixture was incubated at 37° C. for 30 minutes using a sample solution of 1 μl and a BCA solution of 200 μl. The absorbance was measured at 562 nm. Samples were prepared by adding a sample buffer to reach 10 μg per well.
SDS-PAGE was conducted by setting a running time of 70 minutes at 110 V in a 4-15% Mini-PROTEAN TGX stain-free gel (15 wells). A transfer was conducted using a trans-blot turbo transfer system (Bio-rad). Blocking was conducted using a blocking-grade blocker (Bio-rad) for 1 hour. Then, it was washed with 1×TBS containing 0.1% tween 20, and reacted with anti-BRD4 antibody (1:3000) or anti-beta-tubulin antibody (1:3000) in bovine serum albumin as a primary antibody at 4° C. for 16 hours. After washing three times for 10 minutes with 1×TBS containing 0.1% tween 20, it was reacted with anti-rabbit antibody (1:10000) in the blotting-grade blocker as a secondary antibody at room temperature for 1 hour. Then, after washing three times for 10 minutes with 1×TBS containing 0.1% tween 20, detection was conducted with SUPERSIGNAL™ WEST PICO PLUS chemiluminescence substrate.
For result analysis, final blot data were obtained using an image analyzer (GE).
DC50^1): DC50 value is calculated by comparing band intensity with that of a sample which is not treated with a PROTAC compound as a controlled group.
DC50^2): DC50 value is calculated by comparing the band intensity relative to that of beta-tubulin with that of the controlled group.

[4] = WST-8, read-out: IC50 of BRD4-targeted PROTAC (cell proliferation)
[5] = read-out: concentration at which cancer cell proliferation is effectively inhibited
[6] = A549, 24 hours; band intensity compared with untreated control; read-out: DC50 1)
[7] = A549, 24 hours; band intensity relative to beta-tubulin compared with control; read-out: DC50 2)

BRD4 degradation (in words) (BRD4 [1]) | DC50 (BRD4 [1]) | IC50 [2, 4] | IC50 [2, 5] | DC50 (BRD4 [3]; [6]) | DC50 (BRD4 [3]; [7]) | Compound
effectively degraded | 2.6 nM | 32.2 nM | < 250 nM | 11.3 nM | 10.9 nM | Cc1sc2c(c1C)C(c1ccc(Cl)cc1)=N[C@@H](CC(=O)Nc1cccc(OCCOCCOCCNc3cccc4cnn(C5CCC(=O)NC5=O)c(=O)c34)c1)c1nnc(C)n1-2 (stereo partly drawn) [Ex. 23, 2-((S)-4-(4-chlorophenyl)-2,3,9-trimethyl-6H-thieno[3,2-f][1,2,4]triazolo[4,3-a][1,4]diazepin-6-yl)-N-(3-(2-(2-(2-((3-(2,6-dioxopiperidin-3-yl)-4-oxo-3,4-dihydrophthalazin-5-yl)amino)ethoxy)ethoxy)ethoxy)phenyl)acetamide]
– | – | 232 nM | – | 56.9 nM | 49.6 nM | Cc1sc2c(c1C)C(c1ccc(Cl)cc1)=N[C@@H](CC(=O)Nc1ccc(OCCOCCOCCNc3ccc4c(=O)n(C5CCC(=O)NC5=O)ncc4c3)cc1)c1nnc(C)n1-2 (stereo partly drawn) [Ex. 25, 2-((S)-4-(4-chlorophenyl)-2,3,9-trimethyl-6H-thieno[3,2-f][1,2,4]triazolo[4,3-a][1,4]diazepin-6-yl)-N-(4-(2-(2-(2-((2-(2,6-dioxopiperidin-3-yl)-1-oxo-1,2-dihydrophthalazin-6-yl)amino)ethoxy)ethoxy)ethoxy)phenyl)acetamide]
– | – | 126 nM | – | 22 nM | 568 nM | Cc1sc2c(c1C)C(c1ccc(Cl)cc1)=N[C@@H](CC(=O)Nc1ccc(OCCOCCOCCNc3ccc4cnn(C5CCC(=O)NC5=O)c(=O)c4c3)cc1)c1nnc(C)n1-2 (stereo partly drawn) [Ex. 26, 2-((S)-4-(4-chlorophenyl)-2,3,9-trimethyl-6H-thieno[3,2-f][1,2,4]triazolo[4,3-a][1,4]diazepin-6-yl)-N-(4-(2-(2-(2-((3-(2,6-dioxopiperidin-3-yl)-4-oxo-3,4-dihydrophthalazin-6-yl)amino)ethoxy)ethoxy)ethoxy)phenyl)acetamide]
– | – | 640 nM | – | 9.21 nM | 11.9 nM | Cc1sc2c(c1C)C(c1ccc(Cl)cc1)=N[C@@H](CC(=O)Nc1ccc(OCCOCCOCCOCCNc3cccc4cnn(C5CCC(=O)NC5=O)c(=O)c34)cc1)c1nnc(C)n1-2 (stereo partly drawn) [Ex. 27, 2-[(9S)-7-(4-chlorophenyl)-4,5,13-trimethyl-3-thia-1,8,11,12-tetraazatricyclo[8.3.0.0^2,6]trideca-2(6),4,7,10,12-pentaen-9-yl]-N-[4-(2-{2-[2-(2-{[3-(2,6-dioxopiperidin-3-yl)-4-oxo-3,4-dihydrophthalazin-5-yl]amino}ethoxy)ethoxy]ethoxy}ethoxy)phenyl]acetamide]
effectively degraded | 3.3 nM | 33.1 nM | < 250 nM | 25.3 nM | 299 nM | Cc1sc2c(c1C)C(c1ccc(Cl)cc1)=N[C@@H](CC(=O)Nc1ccc(OCCOCCOCCOCCNc3ccc4c(=O)n(C5CCC(=O)NC5=O)ncc4c3)cc1)c1nnc(C)n1-2 (stereo partly drawn) [Ex. 28, 2-((S)-4-(4-chlorophenyl)-2,3,9-trimethyl-6H-thieno[3,2-f][1,2,4]triazolo[4,3-a][1,4]diazepin-6-yl)-N-(4-(2-(2-(2-(2-((2-(2,6-dioxopiperidin-3-yl)-1-oxo-1,2-dihydrophthalazin-6-yl)amino)ethoxy)ethoxy)ethoxy)ethoxy)phenyl)acetamide]
